# Assays:
# [1] = tested on: tau accumulated in the brain with AD; assay: In vitro autoradiography using autopsied brain tissue of Alzheimer's disease patient; format: binding, human; settings: for radioactivity accumulation in the brain tissue section of the frontal lobe / radioactivity accumulation in the brain tissue section of the temporal lobe: AD patient autopsied brain section, 370 kBq/mL, 2 hours room temperature; for nonspecific binding to the brain white matter: AD patient autopsied brain sections; for visualization of tau (autoradiography compared with tau and Aβ immunostaining): AD patient temporal lobe section, adjacent sections immunostained (AT8, BC05)
# Protocol: (Evaluation 1) In Vitro Autoradiography Using Autopsied Brain Tissue of Alzheimer's Disease Patient (1) In Vitro Autoradiography
# Autopsied brain tissue sections of an Alzheimer's disease (AD) patient (sections from a frontal lobe site and a temporal lobe site, 6 μm) were used, which were provided from Graduate School of Medicine, Kyoto University and National Cerebral and Cardiovascular Center Hospital. Deparaffinization treatment was performed by washing with xylene (15 min×2), ethanol (1 min×2), a 90 vol % aqueous ethanol solution (1 min×1), an 80 vol % aqueous ethanol solution (1 min×1), a 70 vol % aqueous ethanol solution (1 min×1), and purified water (2.5 min×2). A 10 vol % aqueous ethanol solution of each radioactive iodine-labeled BIP derivative compound (370 kBq/mL) obtained by the method shown in Example 7 was added thereto, and the tissue sections were incubated at room temperature for 2 hours. The tissue sections were washed with a 50 vol % aqueous ethanol solution (1 hr×1), then exposed to an imaging plate (BAS-SR2025 manufactured by Fujifilm Corp.), and analyzed using a bioimaging analyzer (bioimaging analyzer BAS-5000 manufactured by Fujifilm Corp.). Multi Gauge manufactured by Fujifilm Corp. was used in quantitative analysis.
# FIGS. 5E and 5F show the results obtained using [^125I]BIP-NMe2. FIGS. 5G and 5H show the results obtained using [^125I]BIP-OMe. FIGS. 5I and 5J show the results obtained using [^125I]BIP-Me. FIGS. 5E, 5G, and 5I show the results obtained using the brain tissue section of the frontal lobe. FIGS. 5F, 5H, and 5J show the results obtained using the brain tissue section of the temporal lobe.
# Tau and Aβ were immunostained using sections adjacent to the autopsied AD brain tissue sections used in autoradiography. An anti-phosphorylated tau monoclonal antibody (AT8, manufactured by Thermo Fisher Scientific Inc.) was used as a primary antibody in the immunostaining of tau, and an anti-Aβ1-42 monoclonal antibody (BC05, manufactured by Wako Pure Chemical Industries, Ltd.) was used as a primary antibody in the immunostaining of Aβ. Deparaffinization treatment was performed by washing with xylene (15 min×2), ethanol (1 min×2), a 90 vol % aqueous ethanol solution (1 min×1), an 80 vol % aqueous ethanol solution (1 min×1), a 70 vol % aqueous ethanol solution (1 min×1), and purified water (2.5 min×2). The antigens were retrieved by autoclaving (15 min) in a 0.01 mol/L citrate buffer solution (pH 6.0) and formic acid treatment (5 min). The tissue sections were washed with running water (5 min) and then washed with PBS-Tween 20 (2 min×1). The tissue sections were reacted with primary antibody solutions at room temperature for 1 hour and then washed with PBS-Tween 20 (5 min×3). The tissue sections were reacted with Histofine Simple Stain MAX-PO (MULTI) (manufactured by Nichirei Biosciences Inc.) at room temperature for 30 minutes and then washed with PBS-Tween 20 (3 min×3) and TBS (5 min×1). Finally, the tissue sections were reacted with a DAB solution at room temperature for 1 minute. The tissue sections were washed with distilled water (1 min×1) to terminate the reaction. The brain tissue sections were mounted on slides and then observed under a microscope (BZ-9000 manufactured by Keyence Corporation).
# FIGS. 5A and 5B show the results obtained using the brain tissue section of the frontal lobe. FIGS. 5C and 5D show the results obtained using the brain tissue section of the temporal lobe. FIGS. 5A and 5C show the results of immunostaining with the antibody against tau. FIGS. 5B and 5D show the results of immunostaining with the antibody against Aβ.
# [2] = Evaluation of in vivo radioactivity distribution in normal mouse; settings: normal ddY male mice, tail vein; for radioactivity distribution, Blood / radioactivity distribution, Brain / radioactivity distribution, Heart / radioactivity distribution, Intestine / radioactivity distribution, Kidney / radioactivity distribution, Liver / radioactivity distribution, Lung / radioactivity distribution, Pancreas / radioactivity distribution, Spleen / radioactivity distribution, Stomach / radioactivity distribution, Thyroid gland: mean (SD)
# Protocol: (Evaluation 2) Evaluation of In Vivo Radioactivity Distribution in Normal Mouse
# Each compound of [^125I]BIP-NMe2, [^125I]BIP-OMe, and [^125I]BIP-Me synthesized according to the method shown in Example 7 was diluted with saline containing 10 vol % ethanol and 0.1 vol % Tween 80. Each radioactive iodine-labeled BIP derivative compound was administered to a group of 5-week-old ddY male mice (26 to 28 g; each group involved 5 mice) from the tail veins thereof at 19.6 to 29.4 kBq (100 μL) per mouse. After 2, 10, 30, or 60 minutes, the mice were slaughtered. After blood collection, the organs were taken out, and their weights and radioactivity were measured.
# In Tables 2 to 4, the numerical values shown in the column “Time after administration” are means of % ID for the stomach and the thyroid gland and means of % ID/g for the other tissues with standard deviation (SD) shown in parenthesis.
smiles,measurement,setting,value
"Cc1ccn2c(c1)nc1cc([125I])ccc12 [[^125I]BIP-Me, 7-[^125I]iodo-3-methylbenzo[4,5]imidazo[1,2-a]pyridine]",radioactivity accumulation in the brain tissue section of the frontal lobe,[1],none
same,radioactivity accumulation in the brain tissue section of the temporal lobe,[1],exhibited radioactivity accumulation in only the brain tissue section of the temporal lobe
same,nonspecific binding to the brain white matter,[1],low
same,visualization of tau (autoradiography compared with tau and Aβ immunostaining),[1],clearly visualizes tau accumulated in the brain with AD
same,clearance from the brain,[2],rapid clearance from the brain
same,transfer to the brain early after administration,[2],high transfer to the brain
same,"radioactivity distribution, Blood",[2]; 2 min after administration,3.63(0.19) % ID/g
same,"radioactivity distribution, Brain",[2]; 2 min after administration,4.28(0.50) % ID/g
same,"radioactivity distribution, Heart",[2]; 2 min after administration,4.40(0.59) % ID/g
same,"radioactivity distribution, Intestine",[2]; 2 min after administration,3.38(0.55) % ID/g
same,"radioactivity distribution, Kidney",[2]; 2 min after administration,7.32(0.61) % ID/g
same,"radioactivity distribution, Liver",[2]; 2 min after administration,19.7(2.89) % ID/g
same,"radioactivity distribution, Lung",[2]; 2 min after administration,6.54(0.76) % ID/g
same,"radioactivity distribution, Pancreas",[2]; 2 min after administration,3.85(0.39) % ID/g
same,"radioactivity distribution, Spleen",[2]; 2 min after administration,4.22(0.43) % ID/g
same,"radioactivity distribution, Stomach",[2]; 2 min after administration,2.68(0.25) % ID
same,"radioactivity distribution, Thyroid gland",[2]; 2 min after administration,0.06(0.03) % ID
same,"radioactivity distribution, Blood",[2]; 10 min after administration,2.37(0.22) % ID/g
same,"radioactivity distribution, Brain",[2]; 10 min after administration,0.94(0.17) % ID/g
same,"radioactivity distribution, Heart",[2]; 10 min after administration,1.61(0.19) % ID/g
same,"radioactivity distribution, Intestine",[2]; 10 min after administration,14.2(5.56) % ID/g
same,"radioactivity distribution, Kidney",[2]; 10 min after administration,6.75(0.83) % ID/g
same,"radioactivity distribution, Liver",[2]; 10 min after administration,13.7(1.67) % ID/g
same,"radioactivity distribution, Lung",[2]; 10 min after administration,2.37(0.31) % ID/g
same,"radioactivity distribution, Pancreas",[2]; 10 min after administration,1.38(0.29) % ID/g
same,"radioactivity distribution, Spleen",[2]; 10 min after administration,1.94(0.29) % ID/g
same,"radioactivity distribution, Stomach",[2]; 10 min after administration,6.52(1.23) % ID
same,"radioactivity distribution, Thyroid gland",[2]; 10 min after administration,0.03(0.02) % ID
same,"radioactivity distribution, Blood",[2]; 30 min after administration,1.53(0.52) % ID/g
same,"radioactivity distribution, Brain",[2]; 30 min after administration,0.14(0.03) % ID/g
same,"radioactivity distribution, Heart",[2]; 30 min after administration,0.66(0.10) % ID/g
same,"radioactivity distribution, Intestine",[2]; 30 min after administration,19.5(2.03) % ID/g
same,"radioactivity distribution, Kidney",[2]; 30 min after administration,4.05(1.19) % ID/g
same,"radioactivity distribution, Liver",[2]; 30 min after administration,7.32(0.71) % ID/g
same,"radioactivity distribution, Lung",[2]; 30 min after administration,1.14(0.11) % ID/g
same,"radioactivity distribution, Pancreas",[2]; 30 min after administration,0.50(0.08) % ID/g
same,"radioactivity distribution, Spleen",[2]; 30 min after administration,0.60(0.13) % ID/g
same,"radioactivity distribution, Stomach",[2]; 30 min after administration,7.05(2.50) % ID
same,"radioactivity distribution, Thyroid gland",[2]; 30 min after administration,0.02(0.00) % ID
same,"radioactivity distribution, Blood",[2]; 60 min after administration,0.77(0.12) % ID/g
same,"radioactivity distribution, Brain",[2]; 60 min after administration,0.04(0.00) % ID/g
same,"radioactivity distribution, Heart",[2]; 60 min after administration,0.36(0.07) % ID/g
same,"radioactivity distribution, Intestine",[2]; 60 min after administration,28.7(5.09) % ID/g
same,"radioactivity distribution, Kidney",[2]; 60 min after administration,2.19(1.23) % ID/g
same,"radioactivity distribution, Liver",[2]; 60 min after administration,4.69(0.54) % ID/g
same,"radioactivity distribution, Lung",[2]; 60 min after administration,0.65(0.11) % ID/g
same,"radioactivity distribution, Pancreas",[2]; 60 min after administration,0.40(0.24) % ID/g
same,"radioactivity distribution, Spleen",[2]; 60 min after administration,0.36(0.10) % ID/g
same,"radioactivity distribution, Stomach",[2]; 60 min after administration,7.43(1.29) % ID
same,"radioactivity distribution, Thyroid gland",[2]; 60 min after administration,0.01(0.00) % ID
"CN(C)c1ccn2c(c1)nc1cc([125I])ccc12 [[^125I]BIP-NMe2, 7-[^125I]iodo-3-dimethylaminopyrido[1,2-a]benzimidazole]",radioactivity accumulation in the brain tissue section of the frontal lobe,[1],none
same,radioactivity accumulation in the brain tissue section of the temporal lobe,[1],exhibited radioactivity accumulation in only the brain tissue section of the temporal lobe
same,nonspecific binding to the brain white matter,[1],low
same,visualization of tau (autoradiography compared with tau and Aβ immunostaining),[1],clearly visualizes tau accumulated in the brain with AD
same,clearance from the brain,[2],rapid clearance from the brain
same,transfer to the brain early after administration,[2],high transfer to the brain
same,"radioactivity distribution, Blood",[2]; 2 min after administration,2.91(0.75) % ID/g
same,"radioactivity distribution, Brain",[2]; 2 min after administration,3.98(0.32) % ID/g
same,"radioactivity distribution, Heart",[2]; 2 min after administration,6.38(1.09) % ID/g
same,"radioactivity distribution, Intestine",[2]; 2 min after administration,3.07(0.52) % ID/g
same,"radioactivity distribution, Kidney",[2]; 2 min after administration,14.3(1.91) % ID/g
same,"radioactivity distribution, Liver",[2]; 2 min after administration,9.78(2.50) % ID/g
same,"radioactivity distribution, Lung",[2]; 2 min after administration,8.80(1.70) % ID/g
same,"radioactivity distribution, Pancreas",[2]; 2 min after administration,5.66(1.03) % ID/g
same,"radioactivity distribution, Spleen",[2]; 2 min after administration,2.97(0.92) % ID/g
same,"radioactivity distribution, Stomach",[2]; 2 min after administration,1.71(0.43) % ID
same,"radioactivity distribution, Thyroid gland",[2]; 2 min after administration,0.05(0.03) % ID
same,"radioactivity distribution, Blood",[2]; 10 min after administration,1.48(0.18) % ID/g
same,"radioactivity distribution, Brain",[2]; 10 min after administration,1.66(0.16) % ID/g
same,"radioactivity distribution, Heart",[2]; 10 min after administration,2.53(0.24) % ID/g
same,"radioactivity distribution, Intestine",[2]; 10 min after administration,7.45(0.50) % ID/g
same,"radioactivity distribution, Kidney",[2]; 10 min after administration,17.0(1.70) % ID/g
same,"radioactivity distribution, Liver",[2]; 10 min after administration,18.1(0.53) % ID/g
same,"radioactivity distribution, Lung",[2]; 10 min after administration,3.59(0.43) % ID/g
same,"radioactivity distribution, Pancreas",[2]; 10 min after administration,4.77(0.27) % ID/g
same,"radioactivity distribution, Spleen",[2]; 10 min after administration,5.15(0.84) % ID/g
same,"radioactivity distribution, Stomach",[2]; 10 min after administration,3.30(0.49) % ID
same,"radioactivity distribution, Thyroid gland",[2]; 10 min after administration,0.03(0.01) % ID
same,"radioactivity distribution, Blood",[2]; 30 min after administration,1.18(0.26) % ID/g
same,"radioactivity distribution, Brain",[2]; 30 min after administration,0.38(0.03) % ID/g
same,"radioactivity distribution, Heart",[2]; 30 min after administration,1.00(0.15) % ID/g
same,"radioactivity distribution, Intestine",[2]; 30 min after administration,14.5(3.43) % ID/g
same,"radioactivity distribution, Kidney",[2]; 30 min after administration,7.45(1.11) % ID/g
same,"radioactivity distribution, Liver",[2]; 30 min after administration,12.7(1.35) % ID/g
same,"radioactivity distribution, Lung",[2]; 30 min after administration,1.77(0.31) % ID/g
same,"radioactivity distribution, Pancreas",[2]; 30 min after administration,1.51(0.19) % ID/g
same,"radioactivity distribution, Spleen",[2]; 30 min after administration,2.97(0.44) % ID/g
same,"radioactivity distribution, Stomach",[2]; 30 min after administration,6.35(1.13) % ID
same,"radioactivity distribution, Thyroid gland",[2]; 30 min after administration,0.02(0.01) % ID
same,"radioactivity distribution, Blood",[2]; 60 min after administration,0.93(0.23) % ID/g
same,"radioactivity distribution, Brain",[2]; 60 min after administration,0.16(0.01) % ID/g
same,"radioactivity distribution, Heart",[2]; 60 min after administration,0.63(0.05) % ID/g
same,"radioactivity distribution, Intestine",[2]; 60 min after administration,23.5(3.65) % ID/g
same,"radioactivity distribution, Kidney",[2]; 60 min after administration,5.45(1.90) % ID/g
same,"radioactivity distribution, Liver",[2]; 60 min after administration,5.82(0.91) % ID/g
same,"radioactivity distribution, Lung",[2]; 60 min after administration,0.99(0.07) % ID/g
same,"radioactivity distribution, Pancreas",[2]; 60 min after administration,0.80(0.15) % ID/g
same,"radioactivity distribution, Spleen",[2]; 60 min after administration,1.97(0.25) % ID/g
same,"radioactivity distribution, Stomach",[2]; 60 min after administration,7.59(1.39) % ID
same,"radioactivity distribution, Thyroid gland",[2]; 60 min after administration,0.01(0.00) % ID

# — patent publication US10081630B2, “Radioactive halogen-labeled pyrido [1,2-A] benzimidazole derivative compound” (KYOTO UNIVERSITY, priority 2015, dated 2018)
